Data set [1] relates to formalin-induced flinching behavior. As to the kind of experiment: Formalin pain model (flinching behavior). It is filed as in vivo, rat. The settings on record: 60 min before formalin. The procedure: Effects of (3aR,6aS)-3a-(3,4-Dichlorophenyl)octahydrocyclopenta[c]pyrrole on acute and persistent inflammatory pain were evaluated in male rats. Pain was induced experimentally by application of a chemical irritant, formalin, which results in a biphasic behavioral response that includes both early (Phase 1, 0-9 minutes) and late (Phase 2, 10-60 minutes) phase flinching behavior. The early phase response is considered to be the result of C-fiber activation while the late phase appears to be dependent on the combination of an inflammatory response in the tissue and functional changes in the dorsal horn of the spinal cord.
Male rats (Sprague-Dawley, 272-315 g, Harlan) were housed 4 animals per cage in a temperature-controlled environment on a 12-hour light-dark cycle with food and water available ad libitum. Animals were allowed to acclimate to the facility for at least 5 days before testing. On the day of the study, a flexible, light-weight, ‘C’-shaped metal band was applied to one hind paw and the rat was dosed orally (PO, 3 mL/kg, via gavage) or intraperitoneally (IP, 1 mL/kg) with vehicle (50 mM acetate buffer (pH 4.5)), (3aR,6aS)-3a-(3,4-dichlorophenyl)octahydrocyclopenta[c]pyrrole or gabapentin. […] Formalin-induced flinching behavior was recorded for 60 minutes.

A short description of data set [2]: Brain and plasma levels following oral administration. It is filed as in vivo. As to conditions: 10 mg/kg.

“Also recorded” adds a separate entry of the source.

These results are taken from patent publication US9133117B2, “Triple reuptake inhibitors and methods of their use” (SUNOVION PHARMACEUTICALS INC., priority 2008, dated 2015).

Regarding `Clc1ccc([C@@]23CCC[C@@H]2CNC3)cc1Cl` [(3aR,6aS)-3a-(3,4-Dichlorophenyl)octahydrocyclopenta[c]pyrrole], the “effect on formalin-induced flinching behavior” value in data set [1] (male rats, 3, 10 and 30 mg/kg PO, phase I 0-9 min, phase II 10-60 min) was “significant, dose-related decrease in flinching behavior during phases I and II; also recorded: significantly and dose-dependently attenuated formalin-induced flinching behavior in a non-selective manner”. As to `CN1C[C@H]2CCCC[C@@]2(c2ccc(Cl)c(Cl)c2)C1` [(3aR,7aS)-3a-(3,4-Dichlorophenyl)-2-methyloctahydro-1H-isoindole], in data set [2], the “levels of tested compounds in brain (order of lines in FIG. 1)” value (“levels of tested compounds in brain” below) is “top line”; the “ratio of brain and plasma levels (order of lines in FIG. 2)” value (“ratio of brain and plasma levels” for short) is reported as “second line”. Regarding `CN1C[C@H]2CCC[C@@]2(c2ccc(Cl)c(Cl)c2)C1` [(3aR,6aS)-3a-(3,4-dichlorophenyl)-2-methyloctahydrocyclopenta[c]pyrrole], in data set [2], the “levels of tested compounds in brain” value was “fourth line”; the “ratio of brain and plasma levels” value was “fourth line”. `CN1C[C@@H]2CCCC[C@]2(c2ccc(Cl)c(Cl)c2)C1` [(3aS,7aR)-3a-(3,4-Dichlorophenyl)-2-methyloctahydro-1H-isoindole]: in data set [2], the “levels of tested compounds in brain” value is “second line”; the “ratio of brain and plasma levels” value is listed as “top line”.

`CN1C[C@@H]2CCC[C@]2(c2ccc(Cl)c(Cl)c2)C1` [(3aS,6aR)-3a-(3,4-dichlorophenyl)-2-methyloctahydrocyclopenta[c]pyrrole]: in data set [2], the “levels of tested compounds in brain” value is reported as “third line”; the “ratio of brain and plasma levels” value is reported as “third line”. `NCC1(CC(=O)O)CCCCC1` [Gabapentin, reference compound]: in data set [1] (male rats, 100 mg/kg IP), the “effect on formalin-induced flinching behavior (positive control)” value is “significant and selective attenuation of phase II formalin-induced flinching behavior”.
